Assay results published in publication PMC3795758, “Biochemical and Molecular Characterization of a Serine Keratinase from Brevibacillus brevis US575 with Promising Keratin-Biodegradation and Hide-Dehairing Activities” (PLoS ONE, 2013).

System: T1, KERUS
T1 construct: native extracellular enzyme purified from culture supernatant; mature form 275 aa of a 383-aa pre-pro-enzyme (pre 29 aa, pro 79 aa removed)
Assay: esterase activity, absorbance at […] nm, Lineweaver-Burk
Format: biochemical, Brevibacillus brevis
Conditions: pH 8, 40°C, 10% (v/v) DMSO, 1% (v/v) Triton X-100

Km: 655 ± 33 µM
Compound: CCOC(=O)[C@H](CCCN=C(N)N)NC(=O)c1ccccc1 [BAEE]
